# Data reported in patent publication US8633186B2, “Modulation of chemosensory receptors and ligands associated therewith” (Senomyx Inc., priority 2007, dated 2014).
# Tested on: human panelists (perceived sweetness intensity)
# Assay: Sweet flavor and sweet flavor enhancement, human panelists, scaling test
# Format: in vivo
# Parameters: key: 0-15 line scale; 0 = no sweetness, 15 = 15% sucrose sweetness
# Details: for Average Sweetness: Table 28, n = 28
# Source text: Test samples containing experimental compounds were compared to a dose-response curve for perceived sweetness intensity of sweeteners (such as, for example, sucralose, sucrose, fructose and other sweeteners) concentrations to determine equivalent sweetness intensity.
# A group of eight or more panelists tasted solutions including sweeteners at various concentrations, as well as the experimental compound both with and without added sweetener. Panelists then rated sweetness intensity of all samples on a structured horizontal line scale, anchored from 0 to 15, where 0 equals no sweetness and 15 equals equivalent sweetness to a 15% sucrose sample. Scores for sweetness intensity were averaged across panelists. Then using the average scores and/or equation of the line for the sweetener dose-response curve, equivalent sweetness concentrations were determined for the samples containing experimental compounds.
# Subjects had been previously familiarized with the key attribute taste and were trained to use the 0 to 15 point line scale. Subjects refrained from eating or drinking (except water) for at least 1 hour prior to the test. Subjects ate a cracker and rinsed with water several times to clean the mouth.
# Sweetener solutions are provided at a wide range of concentrations such as 100 ppm, 200 ppm, 300 ppm, 400 ppm, and 500 ppm for sucralose, or between 0% and 12% for sucrose or fructose, in order to create a dose-response curve. Samples containing experimental compound were prepared both alone and in a 100 ppm sucralose solution or a 6% sucrose or fructose solution. All samples were made up in low sodium buffer pH 7.1. In order to aid dispersion, solutions can be made up in 0.1% ethanol.
# The solutions were dispensed in 20 ml volumes into 1 oz. sample cups and served to the subjects at room temperature. All samples were presented in randomized counterbalanced order to reduce response bias. Further, two sessions of testing may be used to check panel precision.
# Subjects tasted each sample individually and rate sweetness intensity on the line scale prior to tasting the next sample. All samples were expectorated. Subjects may retaste the samples but can only use the volume of sample given. Subjects must rinse with water between samples. Eating an unsalted cracker between samples may be required depending on the samples tasted.
# The scores for each sample were averaged across subjects and standard error was calculated. The dose-response curve was plotted graphically, and this may be used to ensure the panel is rating accurately; i.e., increasing the concentration of sucralose should correspond to increased average scores for sweetness. A 2-way ANOVA (factors being samples and panelists) and multiple comparison tests (such as Tukey's Honestly Significant Difference test) can be used to determine differences among samples and/or panelists. A 3-way ANOVA, with sessions as the third factor, can be used to determine if there is any difference in the ratings between sessions.
smiles,measurement,setting,value
"CCc1sc2[nH]c(=O)nc(N)c2c1C [Example 7, 4-Amino-6-ethyl-5-methylthieno[2,3-d]pyrimidin-2(1H)-one]",Average sweetness score (line scale 0 to 15),"Table 2, 100 μM compound alone in low sodium buffer",0.1
"OC[C@H]1O[C@H](O[C@]2(CCl)O[C@H](CCl)[C@@H](O)[C@@H]2O)[C@H](O)[C@@H](O)[C@H]1Cl [Sucralose, sucralose]",Average sweetness score (line scale 0 to 15),"Table 1, 100 ppm sucralose alone",6.3
same,Average sweetness score (line scale 0 to 15),"Table 1, 200 ppm sucralose alone",10.4
same,Average sweetness score (line scale 0 to 15),"Table 1, 300 ppm sucralose alone",11.5
same,Average sweetness score (line scale 0 to 15),"Table 1, 400 ppm sucralose alone",12.3
same,Average sweetness score (line scale 0 to 15),"Table 3, 100 ppm sucralose alone",7.4
same,Average sweetness score (line scale 0 to 15),"Table 3, 200 ppm sucralose alone",10.4
same,Average sweetness score (line scale 0 to 15),"Table 3, 300 ppm sucralose alone",10.5
same,Average sweetness score (line scale 0 to 15),"Table 3, 400 ppm sucralose alone",11.2
same,Average sweetness score (line scale 0 to 15),"Table 3, 600 ppm sucralose alone",13.0
same,Average sweetness score (line scale 0 to 15),"Table 4, 100 ppm sucralose alone",6.3
same,Average sweetness score (line scale 0 to 15),"Table 4, 200 ppm sucralose alone",9.5
same,Average sweetness score (line scale 0 to 15),"Table 4, 300 ppm sucralose alone",10.3
same,Average sweetness score (line scale 0 to 15),"Table 4, 400 ppm sucralose alone",12.1
same,Average sweetness score (line scale 0 to 15),"Table 6, 100 ppm sucralose alone",6.5
same,Average sweetness score (line scale 0 to 15),"Table 6, 200 ppm sucralose alone",9.1
same,Average sweetness score (line scale 0 to 15),"Table 6, 300 ppm sucralose alone",10.8
same,Average sweetness score (line scale 0 to 15),"Table 6, 400 ppm sucralose alone",11.2
same,Average sweetness score (line scale 0 to 15),"Table 17, 100 ppm sucralose alone",6.5
same,Average sweetness score (line scale 0 to 15),"Table 17, 200 ppm sucralose alone",9.0
same,Average sweetness score (line scale 0 to 15),"Table 17, 300 ppm sucralose alone",10.9
same,Average sweetness score (line scale 0 to 15),"Table 17, 400 ppm sucralose alone",12.3
same,Average Sweetness,50 ppm sucralose alone,4.3
same,Average Sweetness,100 ppm sucralose alone,6.2
same,Average Sweetness,150 ppm sucralose alone,8.2
same,Average Sweetness,200 ppm sucralose alone,8.9
same,Average Sweetness,300 ppm sucralose alone,10.3
